Experimental data published in US5853731A, “Thromboxane A2 Receptor antagonism and antioxidant action of cinnamophilin and its derivatives, their pharmaceutical compositions and uses” (National Science Council, priority 1997, dated 1998).

Tests used:
rat thoracic aorta = assay: Rat aortic contraction caused by norepinephrine and high potassium (KCl); type: cell-based, Wistar rat; settings: 15 min; for K+ contraction (%), Tonic: K+ (80 mM); for norepinephrine contraction (%), Phrase (phasic) / norepinephrine contraction (%), Tonic: norepinephrine 3 μM
Protocol: A. Rat Aortic Contraction
Wistar rats of either sex weighing 250 g to 300 g were killed by a blow to the head. The thoracic aorta was isolated and excess fat and connective tissue were removed. Vessels were cut into rings of about 5 mm in length and mounted in organ baths containing 5 ml Krebs solution of the following composition (mM): NaCl (118.4), KCl (4.7), CaCl (1.9), MgSO4 (1.2), KH2 PO4 (1.2), NaHCO3 (25.0) and glucose (11.7). The tissue bath solution was maintained at 37° C. and gassed with 95% O2 :5% CO2 mixture. Two stainless steel hooks were inserted into the aortic lumen, one was fixed while the other was connected to a transducer. Aortae were equilibrated in the medium for 90 min with three changes of Krebs solution and maintained under an optimal tension of 1 g before specific experimental protocols were initiated.
Contraction was recorded isometrically via a force-displacement transducer connected to a Grass polygraph. Aortae were allowed to preincubate for 15 minutes with cinnamophilin before generating the cumulative concentration-response curve with each agonist for 15-30 min at 3 min intervals. Results are expressed as a percentage of the maximal control response for each agonist.
Rat aorta ring were preincubated with lignans or DMSO (0.1% control) at
37° C. for 15 min, then the inducer was added.

[1] = tested on: platelet aggregation, aortic contraction, tracheal contraction; assay: Bioassay / pharmacological evaluation (platelet aggregation, rat aortic contraction, guinea-pig tracheal contraction); settings: rat aortic and guinea-pig tracheal contraction bioassays
Protocol: The methods of isolation might be performed using polar organic solvent such as methanol, ethanol and acetone. Solvent of the extract from root parts of Cinnamomum philippinense was evaporated and the residue was suspended in water, and extracted with chloroform or other non-polar organic solvents. Bioassay was performed by using this chloroform layer in platelet aggregation test, rat aortic contraction, and guinea-pig tracheal contraction. Purified bioactive components were obtained through silica gel column, then afforded cinnamophilin (1), two known lignan compounds as (+)-guaiacin (3), meso-dihydroguaiaretic acid (2) and an aromatic acid as vallinic acid.
Compounds II-V wherein R1 represents H, C1-8 alkyl, --OCOR, wherein R2 represents OH, COO--, wherein R represents H, C1-8 alkyl. Preferred substituted alkyl group is 8 carbon number, optical alkyl group is 6 carbon number. Structures of these compounds were elucidated on the basis of their IR, UV, ^1 H-NMR, ^13 C-NMR, Mass spectra as well as the elemental analytical data.

rabbit platelets = assay: Aggregation of washed rabbit platelet suspension induced by AA, PAF, collagen, U-46619, ADP and thrombin; type: cell-based
Protocol: A. Preparation of aggregation inducing agent
1. Collagen (bovine tendon) in 15 mM aqueous acetic acid was homogenized at 4° C. to form a well dispersed suspension in 1 mg/ml and stocked at -70° C. Before using, it was thawed and well homogenized.
2. PAF was dissolved in CCl4 and stocked at […] Before using, it was diluted with deionized water.
3. […] and sodium arachidonate (AA) were dissolved in deionized water for use.
B. Preparation of platelets
A suspension of platelets was prepared according to the reported method. EDTA (100 mM) and the blood obtained from rabbit's ear vein were mixed in the ratio of 1:4, and immediately centrifuged (120× g) at room temperature for 10 minutes. Platelet-rich plasma was subjected to further centrifuge (500× g) for another 10 minutes. After the plasma was removed, the platelets in the lower layer were suspended in the Tyrode solution containing EDTA (2 mM) and bovine serum albumin (3.5 mg/ml), and subjected to centrifuge (500× g) again for 10 minutes. The platelets obtained were suspended in a Tyrode solution containing no EDTA, and was adjusted to about 4.5×10^8 cells/ml by a cell counter. 1 mM of calcium ion (Ca^2+) was added to the suspension. 30 minutes after the addition, the experiment was conducted. The composition of Tyrode […]: NaCl (136.9), KCl (2.7), NaH2 PO4 (0.4), NaHCO3 (11.9), glucose (11.1).
C. Platelet aggregation and ATP release reaction test
The method reported by Born (J. Physiol. 168, 178, 1963) was used to determine the platelet aggregation by a Lumi-aggregometer (Model 1020, Payton, Canada). Platelet suspension (0.4 ml) was added into a small glass tube coated with silicone, and stirred at 900 rpm with a small magnetic stirrer. Unless otherwise specified, the antagonist was added 1 minute before the inducing agent, and all the reactions were carried out at 37° C. The aggregation was calculated by following formula: […]
aggregation (% )=(light absorption before adding inducing agent-light absorption after adding inducing agent)/(light absorption before adding inducing agent-light absorption of Tyrode solution)×100% […]
| Platelets were precincubated with 1a, 1b, 1c, 1e, 2 or DMSO (0.5%, | control) at 37° C. for 3 min, then the inducer was added.

[2] = target: thromboxane A2 synthetase; settings: Hoet et al., Blood 75, 646-53, 1990; read-out: IC50, thromboxane A2 synthetase inhibition; cited from earlier work
thromboxane receptor = settings: Hoet et al., Blood 75, 646-53, 1990; read-out: IC50, thromboxane receptor inhibition; cited from earlier work
[3] = compared with BHA or BHT; background statement; cited from earlier work
[4] = Antioxidation (absorbance at 500 nm, FeSCN method); settings: 20 μM
Text: (Absorbance at 500 nm, using FeSCN method)

[5] = inducer AA (100 μM), conc 20 μM, control 92.1 ± 1.3
[6] = inducer ADP (20 μM), conc 300 μM, control 81.6 ± 3.0
[7] = inducer PAF (2 ng/ml), conc 300 μM, control 91.7 ± 2.0
[8] = inducer U-46619 (1 μM), conc 200 μM, control 89.4 ± 1.2
[9] = inducer collagen (10 μg/ml), conc 50 μM, control 93.6 ± 1.0
[10] = inducer collagen (10 μg/ml), conc 100 μM, control 93.6 ± 1.0
[11] = inducer collagen (10 μg/ml), conc 200 μM, control 93.6 ± 1.0
[12] = inducer thrombin (0.1 U/ml), conc 300 μM, control 94.8 ± 2.0
[13] = inducer AA (100 μM), conc 50 μM, control 92.1 ± 1.3
[14] = inducer AA (100 μM), conc 100 μM, control 92.1 ± 1.3
[15] = inducer AA (100 μM), conc 200 μM, control 92.1 ± 1.3

Row | Structure (SMILES) | K+ contraction (%), Tonic (rat thoracic aorta; conc 10 μM) [%] | norepinephrine contraction (%), Phrase (phasic) (rat thoracic aorta; conc 10 μM) [%] | norepinephrine contraction (%), Tonic (rat thoracic aorta; conc 10 μM) [%] | Aggregation (%) (rabbit platelets; [5]) | Aggregation (%) (rabbit platelets; [6]) | Aggregation (%) (rabbit platelets; [7]) | Aggregation (%) (rabbit platelets; [8]) | Aggregation (%) (rabbit platelets; [9]) | Aggregation (%) (rabbit platelets; [10]) | Aggregation (%) (rabbit platelets; [11]) | Aggregation (%) (rabbit platelets; [12]) | Aggregation (%) (rabbit platelets; [13]) | Aggregation (%) (rabbit platelets; [14]) | Aggregation (%) (rabbit platelets; [15]) | also measured
1 | COc1cc(C[C@@H](C)[C@@H](C)Cc2ccc(O)c(OC)c2)ccc1O [Compound 2, meso-dihydroguaiaretic acid, reference compound] | 14.8 ± 2.1 | 111.1 ± 6.2 | 78.4 ± 8.8 | 0.0 ± 0.0 | 67.9 ± 8.4 | 91.7 ± 2.0 | 88.6 ± 3.2 | 79.7 ± 4.7 | 16.4 ± 4.4 | 0.0 ± 0.0 | 85.3 ± 6.6 |  |  |  | K+ contraction (%), Tonic (rat thoracic aorta; conc 1 μM): 74.0 ± 4.1%; K+ contraction (%), Tonic (rat thoracic aorta; conc 3 μM): 36.5 ± 3.2%; K+ contraction (%), Tonic (rat thoracic aorta; conc 5 μM): 25.7 ± 3.9%; bioactivity [1]: has not been observed; Aggregation (%) (rabbit platelets; inducer AA (100 μM), conc 5 μM, control 92.1 ± 1.3): 76.0 ± 7.8%; Aggregation (%) (rabbit platelets; inducer AA (100 μM), conc 10 μM, control 92.1 ± 1.3): 5.9 ± 5.3%
2 | COc1ccc(CC(C)C(C)C(=O)c2ccc(OC)c(OC)c2)cc1OC (stereo not shown) [Compound 4, dimethylcinnamophilin] | 10.5 | 61.3 ± 2.1 | 48.6 ± 3.3 | 87.8 ± 3.3 | 30.7 ± 13.0 | 0.0 ± 0.0 | 86.5 ± 1.7 | 86.2 ± 4.7 | 80.3 ± 3.6 | 7.5 ± 6.4 | 89.7 ± 3.5 | 75.8 ± 10.6 | 37.7 ± 1.6 | 0.0 ± 0.0 | 
3 | COc1cc(CC(C)C(C)C(=O)c2ccc(OC(C)=O)c(OC)c2)ccc1OC(C)=O (stereo not shown) [Compound 5] | 18.4 ± 4.7 | 92.2 ± 13.4 | 64.6 ± 9.1 | 86.3 ± 4.6 | 60.7 ± 12.0 | 45.2 ± 9.2 | 88.4 ± 4.3 | 93.4 ± 1.2 | 80.6 ± 4.7 | 8.4 ± 7.3 | 94.9 ± 1.0 | 57.8 ± 2.8 | 0.0 ± 0.0 |  | 
4 | COc1cc(CC(C)C(C)C(O)c2ccc(O)c(OC)c2)ccc1O (stereo not shown) [Compound 7, cinnamophilinol] | 66.8 ± 2.2 | 100 | 113.3 ± 7.5 | 86.3 ± 1.0 | 77.3 ± 4.0 | 79.7 ± 6.6 | 90.4 ± 1.4 | 89.7 ± 3.4 | 75.5 ± 2.4 | 0.0 ± 0.0 | 73.2 ± 6.8 | 75.5 ± 6.2 | 10.4 ± 9.0 | 0.0 ± 0.0 | K+ contraction (%), Tonic (rat thoracic aorta; conc 50 μM): 51.0 ± 4.4%; norepinephrine contraction (%), Phrase (phasic) (rat thoracic aorta; conc 50 μM): 95.5 ± 3.2%; norepinephrine contraction (%), Tonic (rat thoracic aorta; conc 50 μM): 85.3 ± 10.4%
5 | O=C(O)CCCCO/N=C(/c1cccnc1)c1cccc(C(F)(F)F)c1 [ridogrel] |  |  |  |  |  |  |  |  |  |  |  |  |  |  | IC50 [2]: 5 nM; IC50 (thromboxane receptor): 2000 nM
6 | Cc1c(C)c2c(c(C)c1O)CCC(C)(CCCC(C)CCCC(C)CCCC(C)C)O2 (stereo not drawn) [vitamin E, α-tocopherol, reference compound] |  |  |  |  |  |  |  |  |  |  |  |  |  |  | antioxidative action on fatty oils [3]: lower than BHA (t-butylhydroxyanisole) or BHT (t-butylhydroxy toluene); Absorbance at 500 nm ([4]; induce time 0, control 0.047): 0.026; Absorbance at 500 nm ([4]; induce time 4, control 0.084): 0.069; Absorbance at 500 nm ([4]; induce time 7, control 0.201): 0.083; Absorbance at 500 nm ([4]; induce time 10, control 0.343): 0.108; Absorbance at 500 nm ([4]; induce time 16): 0.176; Absorbance at 500 nm ([4]; induce time 19): 0.226; Absorbance at 500 nm ([4]; induce time 22): 0.297; Absorbance at 500 nm ([4]; induce time 25): 0.487; Absorbance at 500 nm ([4]; induce time 28): 1.024
